Among the data in patent publication US20090156577A1, “7-AMINO ALKYLIDENYL-HETEROCYCLIC QUINOLONES AND NAPHTHYRIDONES” (priority 2004, published 2009) are MIC values, retold here.

Converted amounts (≈) assume the structure as drawn. Read-outs that look alike come from different tables or passages of the source.

This test relates to pathogenic bacteria. As to the kind of experiment: MIC by microdilution broth method (NCCLS M7-A4), in vitro antibacterial activity. It counts as cell-based. The procedure: Minimal inhibitory concentration (MIC) has been an indicator of in vitro antibacterial activity widely used in the art. The in vitro antimicrobial activity of the compounds was determined by the microdilution broth method following the test method from the National Committee for Clinical Laboratory Standards (NCCLS). This method is described in the NCCLS Document M7-A4, Vol. 17, No. 2, “Methods for Dilution Antimicrobial Susceptibility Test for Bacteria that Grow Aerobically—Fourth Edition”, which is incorporated herein by reference.
In this method two-fold serial dilutions of drug in cation adjusted Mueller-Hinton broth are added to wells in microdilution trays. The test organisms are prepared by adjusting the turbidity of actively growing broth cultures so that the final concentration of test organism after it is added to the wells is approximately 5×10^4 CFU/well.
Following inoculation of the microdilution trays, the trays are incubated at 35° C. for 16-20 hours and then read. […] The amount of growth in the wells containing the test compound is compared with the amount of growth in the growth-control wells (no test compound) used in each tray. As set forth in Table 5, compounds of the present invention were tested against a variety of pathogenic bacteria resulting in a range of activities depending on the organism tested.
(In general: In broth dilution the organism is exposed to a series of concentrations in liquid medium.)

[1] abbreviates: Staphylococcus aureus, Organism A: Staphylococcus aureus OC4172, read-out: MIC.
Setting [2] is: Streptococcus pneumoniae, ATCC49619, Organism E: Streptococcus pneumoniae ATCC 49619, read-out: MIC.
[3] abbreviates: Streptococcus pneumoniae, Organism B: fluoroquinolone-resistant clinical isolate of Streptococcus pneumoniae (QRDR amino acid substitutions).
Setting [4] is: Streptococcus pneumoniae, Organism C: fluoroquinolone-resistant clinical isolate of Streptococcus pneumoniae (QRDR amino acid substitutions).
[5] abbreviates: Streptococcus pneumoniae, Organism D: fluoroquinolone-resistant clinical isolate of Streptococcus pneumoniae (QRDR amino acid substitutions).

What is called MIC is the lowest concentration that inhibits growth of the organism. Consider `CC1(C)CN(c2nc3c(cc2F)c(=O)c(C(=O)O)cn3C2CC2)CCC1=C(F)CN` [Compound 175, 7-[4-(2-Amino-1-fluoro-ethylidene)-3,3-dimethyl-piperidin-1-yl]-1-cyclopropyl-6-fluoro-4-oxo-1,4-dihydro-[1,8]naphthyridine-3-carboxylic acid], for which the MIC by setting is: under setting [1], 0.5 µg/mL (≈ 1.19 µM); under setting [2], 0.25 µg/mL (≈ 0.597 µM); under setting [3], 2 µg/mL (≈ 4.78 µM); under setting [4], 2 µg/mL (≈ 4.78 µM); under setting [5], 1 µg/mL (≈ 2.39 µM).
On to `CC1(C)CN(c2nc3c(cc2F)c(=O)c(C(=O)O)cn3C2CC2)CCC1=C(Br)CN` [Compound 176, 7-[4-(2-Amino-1-bromo-ethylidene)-3,3-dimethyl-piperidin-1-yl]-1-cyclopropyl-6-fluoro-4-oxo-1,4-dihydro-[1,8]naphthyridine-3-carboxylic acid], for which the minimal inhibitory concentration (MIC) amounted to 0.25 µg/mL (≈ 0.522 µM) under setting [1]; 0.12 µg/mL (≈ 0.25 µM) under setting [2]; 0.5 µg/mL (≈ 1.04 µM) under setting [3]; 1 µg/mL (≈ 2.09 µM) under setting [4]; 1 µg/mL (≈ 2.09 µM) under setting [5].
On to `CN(C)CCNCC(Cl)=C1CCN(c2nc3c(cc2F)c(=O)c(C(=O)O)cn3C2CC2)CC1` [Compound 177, 7-{4-[1-Chloro-2-(2-dimethylamino-ethylamino)-ethylidene]-piperidin-1-yl}-1-cyclopropyl-6-fluoro-4-oxo-1,4-dihydro-[1,8]naphthyridine-3-carboxylic acid], for which the MIC was 1 µg/mL (≈ 2.09 µM) under setting [1]; 4 µg/mL (≈ 8.37 µM) under setting [2]; 8 µg/mL (≈ 16.7 µM) under setting [3]; over 16 µg/mL under setting [4]; over 16 µg/mL under setting [5].
For `C=CC(Cl)=C1CCN(c2nc3c(cc2F)c(=O)c(C(=O)O)cn3C2CC2)CC1` [Compound 178, 7-[4-(1-Chloro-allylidene)-piperidin-1-yl]-1-cyclopropyl-6-fluoro-4-oxo-1,4-dihydro-[1,8]naphthyridine-3-carboxylic acid], the MIC under setting [1] came out at 0.5 µg/mL (≈ 1.24 µM); the minimal inhibitory concentration (MIC) under setting [2] was found to be 4 µg/mL (≈ 9.9 µM); the MIC under setting [3] turned out to be 1 µg/mL (≈ 2.48 µM); the MIC under setting [4] stood at 8 µg/mL (≈ 19.8 µM); the MIC under setting [5] was 4 µg/mL (≈ 9.9 µM).
Consider `CCOC(=O)OCC(F)=C1CCN(c2nc3c(cc2F)c(=O)c(C(=O)O)cn3C2CC2)CC1` [Compound 179, 1-Cyclopropyl-7-[4-(2-ethoxycarbonyloxy-1-fluoro-ethylidene)-piperidin-1-yl]-6-fluoro-4-oxo-1,4-dihydro-[1,8]naphthyridine-3-carboxylic acid], for which the minimum inhibitory concentration (MIC) by setting is: under setting [1], 0.5 µg/mL (≈ 1.08 µM); under setting [2], 2 µg/mL (≈ 4.32 µM); under setting [3], over 16 µg/mL; under setting [4], over 16 µg/mL; under setting [5], over 16 µg/mL.
As to `CN(C)CC(Cl)=C1CCN(c2nc3c(cc2F)c(=O)c(C(=O)O)cn3C2CC2)CC1` [Compound 180, 7-[4-(1-Chloro-2-dimethylamino-ethylidene)-piperidin-1-yl]-1-cyclopropyl-6-fluoro-4-oxo-1,4-dihydro-[1,8]naphthyridine-3-carboxylic acid], the MIC reads like this: under setting [1], 0.5 µg/mL (≈ 1.15 µM); under setting [2], 0.5 µg/mL (≈ 1.15 µM); under setting [4], 8 µg/mL (≈ 18.4 µM); under setting [5], 2 µg/mL (≈ 4.6 µM).
As for `O=C(O)c1cn(C2CC2)c2nc(N3CCC(=C(Cl)CN4CCCCC4)CC3)c(F)cc2c1=O` [Compound 181, 7-[4-(1-Chloro-2-piperidin-1-yl-ethylidene)-piperidin-1-yl]-1-cyclopropyl-6-fluoro-4-oxo-1,4-dihydro-[1,8]naphthyridine-3-carboxylic acid], the minimum inhibitory concentration (MIC) runs as follows: under setting [1], 1 µg/mL (≈ 2.11 µM); under setting [2], 2 µg/mL (≈ 4.21 µM); under setting [4], over 16 µg/mL; under setting [5], 8 µg/mL (≈ 16.8 µM).
The matching figures for `CN(C)CC(F)=C1CCN(c2nc3c(cc2F)c(=O)c(C(=O)O)cn3C2CC2)CC1` [Compound 182, 1-Cyclopropyl-7-[4-(2-dimethylamino-1-fluoro-ethylidene)-piperidin-1-yl]-6-fluoro-4-oxo-1,4-dihydro-[1,8]naphthyridine-3-carboxylic acid]: 0.06 µg/mL (≈ 0.143 µM), 0.25 µg/mL (≈ 0.597 µM), 1 µg/mL (≈ 2.39 µM) and 2 µg/mL (≈ 4.78 µM).
The matching figures for `NCC(F)=C1CN(c2nc3c(cc2F)c(=O)c(C(=O)O)cn3-c2ccc(F)cc2F)C1` [Compound 183, 7-[3-(2-Amino-1-fluoro-ethylidene)-azetidin-1-yl]-1-(2,4-difluoro-phenyl)-6-fluoro-4-oxo-1,4-dihydro-[1,8]naphthyridine-3-carboxylic acid]: 0.12 µg/mL (≈ 0.276 µM), 0.25 µg/mL (≈ 0.576 µM), 2 µg/mL (≈ 4.6 µM) and 2 µg/mL (≈ 4.6 µM).
Consider `O=C(O)c1cn(-c2ccc(F)cc2F)c2nc(N3CCC(=CCO)CC3)c(F)cc2c1=O` [Compound 185, 1-(2,4-Difluoro-phenyl)-6-fluoro-7-[4-(2-hydroxy-ethylidene)-piperidin-1-yl]-4-oxo-1,4-dihydro-[1,8]naphthyridine-3-carboxylic acid], for which the MIC under setting [1] worked out at 0.12 µg/mL (≈ 0.269 µM), the MIC under setting [2] was found to be 1 µg/mL (≈ 2.25 µM), the minimal inhibitory concentration (MIC) under setting [3] was determined as 16 µg/mL (≈ 35.9 µM) and 16 µg/mL (≈ 35.9 µM) was the least that counted as inhibitory under setting [4] (MIC).
As to `COc1c(N2CC(=C(Cl)CN)C2)c(F)cc2c(=O)c(C(=O)O)cn(C3CC3)c12` [Compound 189, 7-[3-(2-Amino-1-chloro-ethylidene)-azetidin-1-yl]-1-cyclopropyl-6-fluoro-8-methoxy-4-oxo-1,4-dihydro-quinoline-3-carboxylic acid], the minimal inhibitory concentration (MIC) is under 0.12 µg/mL under setting [1]; 2 µg/mL (≈ 4.9 µM) under setting [2]; 4 µg/mL (≈ 9.81 µM) under setting [3]; 2 µg/mL (≈ 4.9 µM) under setting [4]; 4 µg/mL (≈ 9.81 µM) under setting [5].
For `COc1c(N2CCC(=C(Cl)CN(C)C)CC2)c(F)cc2c(=O)c(C(=O)O)cn(C3CC3)c12` [Compound 191, 7-[4-(1-Chloro-2-dimethylamino-ethylidene)-piperidin-1-yl]-1-cyclopropyl-6-fluoro-8-methoxy-4-oxo-1,4-dihydro-quinoline-3-carboxylic acid], the minimum inhibitory concentration (MIC) under setting [1] came out at 0.25 µg/mL (≈ 0.539 µM); the MIC under setting [2] was found to be 0.5 µg/mL (≈ 1.08 µM); the minimum inhibitory concentration (MIC) under setting [3] came out at 8 µg/mL (≈ 17.2 µM); the minimal inhibitory concentration (MIC) under setting [4] was found to be 8 µg/mL (≈ 17.2 µM); inhibition of growth under setting [5] (MIC) required 2 µg/mL (≈ 4.31 µM).
Consider `COc1c(N2CCC(=C(Cl)CN3CCCC3)CC2)c(F)cc2c(=O)c(C(=O)O)cn(C3CC3)c12` [Compound 193, 7-[4-(1-Chloro-2-pyrrolidin-1-yl-ethylidene)-piperidin-1-yl]-1-cyclopropyl-6-fluoro-8-methoxy-4-oxo-1,4-dihydro-quinoline-3-carboxylic acid], for which the minimum inhibitory concentration (MIC) came out at 0.12 µg/mL (≈ 0.245 µM) under setting [1]; 0.5 µg/mL (≈ 1.02 µM) under setting [2]; 8 µg/mL (≈ 16.3 µM) under setting [3]; 8 µg/mL (≈ 16.3 µM) under setting [4]; 2 µg/mL (≈ 4.08 µM) under setting [5].
For the compound `COc1c(N2CCC(=C(Cl)CN3CCCCC3)CC2)c(F)cc2c(=O)c(C(=O)O)cn(C3CC3)c12` [Compound 194, 7-[4-(1-Chloro-2-piperidin-1-yl-ethylidene)-piperidin-1-yl]-1-cyclopropyl-6-fluoro-8-methoxy-4-oxo-1,4-dihydro-quinoline-3-carboxylic acid], the minimal inhibitory concentration (MIC) under setting [1] amounted to 0.12 µg/mL (≈ 0.238 µM); the minimal inhibitory concentration (MIC) under setting [2] was 0.5 µg/mL (≈ 0.992 µM); inhibition of growth under setting [3] (MIC) required 2 µg/mL (≈ 3.97 µM); the MIC under setting [4] is 4 µg/mL (≈ 7.94 µM); the minimal inhibitory concentration (MIC) under setting [5] came out at 1 µg/mL (≈ 1.98 µM).
Taken in the same sequence, the figures for `COc1c(N2CCC(=C(Cl)CN3CCOCC3)CC2)c(F)cc2c(=O)c(C(=O)O)cn(C3CC3)c12` [Compound 195, 7-[4-(1-Chloro-2-morpholin-4-yl-ethylidene)-piperidin-1-yl]-1-cyclopropyl-6-fluoro-8-methoxy-4-oxo-1,4-dihydro-quinoline-3-carboxylic acid] were 0.12 µg/mL (≈ 0.237 µM), 1 µg/mL (≈ 1.98 µM), 8 µg/mL (≈ 15.8 µM), 8 µg/mL (≈ 15.8 µM) and 2 µg/mL (≈ 3.95 µM).
On to `COc1c(N2CCC(=C(Cl)CNC(C)C)CC2)c(F)cc2c(=O)c(C(=O)O)cn(C3CC3)c12` [Compound 196, 7-[4-(1-Chloro-2-isopropylamino-ethylidene)-piperidin-1-yl]-1-cyclopropyl-6-fluoro-8-methoxy-4-oxo-1,4-dihydro-quinoline-3-carboxylic acid], for which the minimal inhibitory concentration (MIC) is, setting by setting: under setting [1], 0.12 µg/mL (≈ 0.251 µM); under setting [2], 0.5 µg/mL (≈ 1.05 µM); under setting [4], 4 µg/mL (≈ 8.37 µM); under setting [5], 2 µg/mL (≈ 4.18 µM).
Consider `COc1c(N2CCC(=C(F)CN(C)C)CC2)c(F)cc2c(=O)c(C(=O)O)cn(C3CC3)c12` [Compound 199, 1-Cyclopropyl-7-[4-(2-dimethylamino-1-fluoro-ethylidene)-piperidin-1-yl]-6-fluoro-8-methoxy-4-oxo-1,4-dihydro-quinoline-3-carboxylic acid], for which the minimal inhibitory concentration (MIC) was 0.06 µg/mL (≈ 0.134 µM) under setting [1]; 0.25 µg/mL (≈ 0.559 µM) under setting [2]; 1 µg/mL (≈ 2.23 µM) under setting [3]; 2 µg/mL (≈ 4.47 µM) under setting [4]; 1 µg/mL (≈ 2.23 µM) under setting [5].
Regarding `COc1c(N2CCC(=C(CN)CCO)CC2)c(F)cc2c(=O)c(C(=O)O)cn(C3CC3)c12` [Compound 201, 7-[4-(1-Aminomethyl-3-hydroxy-propylidene)-piperidin-1-yl]-1-cyclopropyl-6-fluoro-8-methoxy-4-oxo-1,4-dihydro-quinoline-3-carboxylic acid], the MIC runs as follows: under setting [1], 0.12 µg/mL (≈ 0.269 µM); under setting [2], 0.5 µg/mL (≈ 1.12 µM); under setting [4], 2 µg/mL (≈ 4.49 µM); under setting [5], 8 µg/mL (≈ 18 µM).
